Assay results as given in paper PMC5577610, “Nine New Triterpene Glycosides, Magnumosides A1–A4, B1, B2, C1, C2 and C4, from the Vietnamese Sea Cucumber Neothyonidium (=Massinium) magnum: Structures and Activities against Tumor Cells Independently and in Synergy with Radioactive Irradiation” (Marine Drugs, 2017).
Counter-ions that a name gives are not always drawn.

How the values were obtained:
Type in all cases: cell-based
[1] = Cytotoxic activity (MTT) against mouse spleenocytes; conditions: CD-1, mouse
Method: (§1) The spleenocytes from CD-1 line mice were used. The spleen was isolated from mice and homogenized. The spleenocytes were washed thrice and resuspended with RPMI-1640 medium contained gentamicine 8 μg/mL (Biolot, Saint Petersburg, Russia). The museum tetraploid strain of murine ascites Ehrlich carcinoma cells from the All-Russian cancer center RAMS (Moscow, Russia) was used. The cells of the ascites Ehrlich carcinoma were separated from ascites, which were collected on day 7 after inoculation in mouse CD-1 line. The cells were washed of ascites thrice and then resuspended in liquid media DMEM with L-Glutamine (Biolot, Saint Petersburg, Russia).
(§2) The solutions of tested substances in different concentrations (20 µL) and cell suspension (200 µL) were added in wells of 96-well plate and incubated over night at 37 °C and 5% CO2. After incubation the cells were sedimented by centrifugation, 200 µL of medium from each well were collected and 100 µL of pure medium were added. Then 10 µL of MTT solution […] (Sigma, St. Louis, MO, USA) were added in each well. Plate was incubated 4 h, after that 100 µL SDS-HCl were added to each well and plate was incubated at 37 °C 4–18 h. Optical density was measured at 570 nm and 630–690 nm. The activity of the substances was calculated as the ratio of the dead cells to general cells amount (ED50). Typicoside A1 [28] and cucumarioside A2-2 [11] were used as positive controls.

[2] = Cytotoxic activity (MTT) against the ascites form of mouse Ehrlich carcinoma cells; conditions: mouse
Method: as §1, §2

[3] = system: human colorectal adenocarcinoma DLD-1 cells; test: Cytotoxicity against DLD-1 cells (MTS assay); conditions: for IC50: Homo sapiens, DLD-1, read-out: IC50 (50% reduction in cell viability), DLD-1 cells, 24 h, 0–100 µM; for Cytotoxic effect against DLD-1 cells (in words): 0–100 µM, 24 h
Method: (§3) Human colorectal adenocarcinoma cells DLD-1 were cultured in RPMI-1640 medium. Culture media was supplemented with 10% fetal bovine serum (FBS) and penicillin—streptomycin solution. Cells were maintained in a sterile environment and kept in an incubator at 5% CO2 and 37 °C to promote growth. DLD-1 cells were sub-cultured every 3–4 days by their rinsing with phosphate buffered saline (PBS), adding trypsin to detach the cells from the tissue culture flask, and transferring 10–20% of the harvested cells to a new flask containing fresh growth media.
DLD-1 cells (1.0 × 10^4/well) were seeded in 96-well plates for 24 h at 37 °C in 5% CO2 incubator. The cells were treated with the compounds 1–9 at concentrations range from 0 to 100 µM for additional 24 h. Subsequently, cells were incubated with 15 µL MTS reagent for 3 h, and the absorbance of each well was measured at 490/630 nm using microplate reader “Power Wave XS” (Bio Tek, Winooski, VT, USA). All the experiments were repeated three times, and the mean absorbance values were calculated. The results are expressed as the percentage of inhibition that produced a reduction in absorbance by compound’s treatment compared to the non-treated cells (control).

mouse erythrocytes = conditions: for Hemolytic action (in words): mouse erythrocytes
Method: The erythrocytes were washed thrice with 0.9% NaCl, centrifuged (450 g) on a centrifuge […] (Heraeus, Hanau, Germany) for 5 min followed by re-suspending in phosphate-buffered saline (PBS), pH 7.2-7.4. […] ED50 was calculated using SigmaPlot 3.02 software (Jandel Scientific, San Rafael, CA, USA). […] The erythrocyte suspension in phosphate-buffered saline, pH 7.2-7.4 (PBS) with 20 μL of the solvent without a tested compound was used as negative control.

[4] = system: human colorectal adenocarcinoma DLD-1 cells; test: Radioactive irradiation plus compounds, DLD-1 cell proliferation (MTS); conditions: compounds 2 µM, radiation 4 Gy, 96 h, MTS assay, read-out: Increase of the inhibitory effect from radiation on proliferation
Method: Figure 7 The effect of radioactive irradiation and a combination of radioactive irradiation and the compounds 3, 7–9 on DLD-1 cancer cell proliferation. DLD-1 cells (8.0 × 10^3) were treated with radiation 4 Gy and the compounds 3, 7–9 (2 µM) for 96 h. Cell viability was estimated using the MTS assay. Data are represented as the mean ± SD as determined from triplicate experiments. A Student’s t-test was used to evaluate the data with the following significance levels: * p < 0.05, ** p < 0.01.
DLD-1 cells (8 × 10^3) cells were seeded in 96-well plates in […] of RPMI-1640/10%FBS medium at 37 °C in a 5% CO2 incubator for 24 h. Then the cells were treated with 2 µM of 3, 7–9 for additional 24, 48, 72 or 96 h at 37 °C in a 5% CO2 atmosphere. The reaction was terminated by adding MTS reagent to each well as described in the Section 3.5.5.
Irradiation was delivered at room temperature using single doses of X-ray system XPERT 80 (KUB Technologies, Inc, Milford, CT, USA). The doses were from 4 to 8 Gy for colony formation assay. The absorber dose was measured using X-ray radiation clinical dosimeter DRK-1 (Akselbant, Moscow, Russia).
DLD-1 cells (5.0 × 10^5) were plated at 60 mm dishes and incubated for 24 h. After the incubation, the cells were cultured in the presence or absence of 2 μM 3, 7–9 for additional 24 h before irradiation at the dose of 4 Gy. Immediately after irradiation, cells were returned to the incubator for recovery. Three hour later, the cells were harvested and used for soft agar assay or proliferation assay to establish the synergism of radioactive irradiation and investigated compounds effects on colony formation or proliferation of tested cells.

[5] = system: human colorectal adenocarcinoma DLD-1 cells; test: Soft agar assay, colony formation of DLD-1 cells; conditions: 14 days; for Reduction of colonies size: 10 µM; for inhibition at 10 µM: Homo sapiens, DLD-1, 336 h, read-out: Inhibition of spontaneous colony formation (number of colonies)
Method: as §3
DLD-1 cells (8.0 × 10^3) were seeded in 6-well plate and treated with the 3, 7–9 (10 µM) in 1 mL of 0.3% Basal Medium Eagle (BME) agar containing 10% FBS, 2 mM L-glutamine, and 25 µg/mL gentamicin. The cultures were maintained at 37 °C in a 5% CO2 incubator for 14 days, and the cell’s colonies were scored using a microscope “Motic AE 20” (Scientific Instrument Company, Campbell, CA, USA) and the Motic Image Plus computer program (Scientific Instrument Company, Campbell, CA, USA).

mouse spleenocytes = test: Cytotoxic activity (MTT) against mouse spleenocytes; conditions: up to the ultimate investigated concentration of 100 μM
Method: as §1, §2

Compound	IC50 [1] [µM]	IC50 [2] [µM]	IC50 [3] [µM]	Hemolytic action (in words) (mouse erythrocytes)	Cytotoxic effect against DLD-1 cells (in words) [3]	Hemolysis of cells (mouse erythrocytes; concentration 1%, positive control) [%]	inhibition at 2 µM [4] [%]	Reduction of colonies size [5]	inhibition at 10 µM [5] [%]	Cytotoxic action against spleenocytes (in words) (mouse spleenocytes)
CC(C)=CCCC(C)(O)C1C2CC3(C)C4=CCC5C(C)(C)C(OC6OCC(OS(=O)(=O)O)C(O)C6OC6OC(C)C(O)C(O)C6O)CCC5(C)C4CCC13C(=O)O2 [Compound 4, 3β-O-[β-D-quinovopyranosyl-(1→2)-4-O-sodium sulfate-β-D-xylopyranosyl]-9βH,20(S)-hydroxylanosta-7,24-diene-18(16)-lactone]	37.6	28.4 ± 0.42	> 100	–	–	–	–	–	–	–
C=C(C)C(O)CCC(C)(O)C1C2CC3(C)C4=CCC5C(C)(C)C(OC6OCC(OS(=O)(=O)O)C(O)C6OC6OC(C)C(O)C(O)C6O)CCC5(C)C4CCC13C(=O)O2 [Compound 2, 3β-O-[β-D-quinovopyranosyl-(1→2)-4-O-sodium sulfate-β-D-xylopyranosyl]-9βH,20(S),24(S)-dihydroxylanosta-7,25-diene-18(16)-lactone]	94.2 ± 1.18	> 100	> 100	moderate hemolytic activity	did not possessed cytotoxic effect	–	–	–	–	–
Triton X-100 [reference compound]	–	–	–	–	–	100	–	–	–	–
COC1C(O)C(COS(=O)(=O)O)OC(OC2COC(OC3C(C)OC(OC4C(OC5CCC6(C)C7CCC89C(=O)OC(CC8(C)C7=CCC6C5(C)C)C9C(C)(O)CCC=C(C)C)OCC(OS(=O)(=O)O)C4O)C(O)C3O)C(O)C2O)C1O [Compound 9, 3β-O-[6-O-sodium sulfate-3-O-methyl-β-D-glucopyranosyl-(1→3)-β-D-xylopyranosyl-(1→4)-β-D-quinovopyranosyl-(1→2)-4-O-sodium sulfate-β-D-xylopyranosyl]-9βH,20(S)-hydroxylanosta-7,24-diene-18(16)-lactone]	12.2 ± 0.33	35.06 ± 0.18	33.9	–	–	–	45	less than 20%	< 20	–
CC1OC(OC2C(OC3CCC4(C)C5CCC67C(=O)OC(CC6(C)C5=CCC4C3(C)C)C7C3(C)CCC(C(C)(C)O)O3)OCC(OS(=O)(=O)O)C2O)C(O)C(O)C1O [Compound 1, 3β-O-[β-D-quinovopyranosyl-(1→2)-4-O-sodium sulfate-β-D-xylopyranosyl]-9βH,20(S),24(S)-epoxy-25-hydroxylanosta-7-ene-18(16)-lactone]	> 100	> 100	> 100	inactive	did not possessed cytotoxic effect	–	–	–	–	inactive
C=C(C)CCCC(C)(O)C1C2CC3(C)C4=CCC5C(C)(C)C(OC6OCC(OS(=O)(=O)O)C(O)C6OC6OC(C)C(O)C(O)C6O)CCC5(C)C4CCC13C(=O)O2 [Compound 3, 3β-O-[β-D-quinovopyranosyl-(1→2)-4-O-sodium sulfate-β-D-xylopyranosyl]-9βH,20(S)-hydroxylanosta-7,25-diene-18(16)-lactone]	19.2 ± 0.03	18.95 ± 0.03	30.3	–	–	–	> 30	49%	22	–
C=C(C)C(O)CCC(C)(O)C1C2CC3(C)C4=CCC5C(C)(C)C(OC6OCC(OS(=O)(=O)O)C(O)C6OC6OC(C)C(OC7OCC(OC8OC(CO)C(O)C(OC)C8O)C(O)C7O)C(O)C6O)CCC5(C)C4CCC13C(=O)O2 [Compound 6, 3β-O-[3-O-methyl-β-D-glucopyranosyl-(1→3)-β-D-xylopyranosyl-(1→4)-β-D-quinovopyranosyl-(1→2)-4-O-sodium sulfate-β-D-xylopyranosyl]-9βH,20(S),24(S)-dihydroxylanosta-7,25-diene-18(16)-lactone]	> 100	> 100	> 100	moderate hemolytic activity	–	–	–	–	–	–
COC1C(O)C(CO)OC(OC2COC(OC3C(C)OC(OC4C(OC5CCC6(C)C7CCC89C(=O)OC(CC8(C)C7=CCC6C5(C)C)C9C(C)(O)CC=CC(C)(C)O)OCC(OS(=O)(=O)O)C4O)C(O)C3O)C(O)C2O)C1O [Compound 5, 3β-O-[3-O-methyl-β-D-glucopyranosyl-(1→3)-β-D-xylopyranosyl-(1→4)-β-D-quinovopyranosyl-(1→2)-4-O-sodium sulfate-β-D-xylopyranosyl]-9βH,20(S),25-dihydroxylanosta-7,23E-diene-18(16)-lactone]	> 100	> 100	> 100	moderate hemolytic activity	–	–	–	–	–	–
C=C(C)C(O)CCC(C)(O)C1C2CC3(C)C4=CCC5C(C)(C)C(OC6OCC(OS(=O)(=O)O)C(O)C6OC6OC(C)C(OC7OCC(OC8OC(COS(=O)(=O)O)C(O)C(OC)C8O)C(O)C7O)C(O)C6O)CCC5(C)C4CCC13C(=O)O2 [Compound 8, 3β-O-[6-O-sodium sulfate-3-O-methyl-β-D-glucopyranosyl-(1→3)-β-D-xylopyranosyl-(1→4)-β-D-quinovopyranosyl-(1→2)-4-O-sodium sulfate-β-D-xylopyranosyl]-9βH,20(S),24(S)-dihydroxylanosta-7,25-diene-18(16)-lactone]	17.3 ± 0.43	37.5	37.1	significant effects	–	–	> 30	less than 20%	< 20	–
COC1C(O)C(COS(=O)(=O)O)OC(OC2COC(OC3C(C)OC(OC4C(OC5CCC6(C)C7CCC89C(=O)OC(CC8(C)C7=CCC6C5(C)C)C9C(C)(O)CC=CC(C)(C)O)OCC(OS(=O)(=O)O)C4O)C(O)C3O)C(O)C2O)C1O [Compound 7, 3β-O-[6-O-sodium sulfate-3-O-methyl-β-D-glucopyranosyl-(1→3)-β-D-xylopyranosyl-(1→4)-β-D-quinovopyranosyl-(1→2)-4-O-sodium sulfate-β-D-xylopyranosyl]-9βH,20(S),25-dihydroxylanosta-7,23E-diene-18(16)-lactone]	8.97 ± 0.04	18.7	32.9	significant effects	–	–	–	43%	26	–
